Legend:
Format in all cases: in vivo
Arabidopsis thaliana [1] = test: HTPS post-emergence application on miniature dicot model plant; conditions: for Emax: Arabidopsis thaliana, post-emergence, green area (RGB), read-out: Max Inhibition (%); for ED50 (g/ha): dose-response of normalized green area
Method: (§1) The plates were placed in a controlled greenhouse in a random order inside a bath which allows flooding irrigation with tap water supplemented with a fertilizer. Applied compounds were dissolved into a final solution of 50% acetone, 49.9% DDW, 0.1% tween-20. A 96 well plate was used as a stock plate for preparing application solutions for 8 repeats. Each row contained different concentrations per chemical. Maximal concentration for application was 1.5 Kg/Ha and dilution factor is 2.5. Chemical application was performed one day after thinning out in a chemical hood. […] applied on first two true leaves in each well using 12 channel pipettes. Data collection: RGB (red, green, blue) data for green area per well was documented using camera. Data is collected at a few time points during the experiment: one day after thinning and before chemical application, two-, six- or nine-days post application. During the last two documentations, visual phenotyping was performed. Data analysis: Given RGB results and visual phenotype scores, a student t-test conducted to compare between treatment and control performance for continuous data (RGB) and Fisher exact test to analyze the non-continuous data (phenotypic scores). Dose-Response curves are generated for each treatment to infer ED50 and max. inhibition parameters, using treatment's log concentration range as the […] variable and normalized green area. Plate imaging performed at 11 and 18 DAA. RGB data for green area per well was documented and used to extract % inhibition. Dose-Response curves were built for each treatment to infer EC50, EC75 and EC90 parameters, using treatment's log concentration range as the independent variable and normalized green area as the dependent variable. Treatments were compared to controls performance given RGB results and using student's t-test (p-val≤0.05). Compounds 104-154 were applied in either or both pre- and post-emergence mode to either or both monocot and dicot model plants, following the methods described above. The compounds were applied as a gradient of concentrations as listed above, from which the ED50 was calculated.

Arabidopsis thaliana [2] = test: HTPS pre-emergence application on dicot model plant; conditions: for ED50 (g/ha): dose-response of normalized green area; for Max Inhibition (%): green area (RGB)
Method: as §1, with “area. […]” for “area.”

Alopecurus myosuroides [3] = test: LTP post-emergence greenhouse test; conditions: Dosage 2000 g/ha
Amaranthus palmeri [4] = test: LTP post-emergence greenhouse test; conditions: Dosage 2000 g/ha
Abutilon theophrasti [5] = test: LTP post-emergence greenhouse test; conditions: Dosage 2000 g/ha
Lolium perenne [6] = test: LTP post-emergence greenhouse test; conditions: Dosage 2000 g/ha
Matricaria chamomilla [7] = test: LTP post-emergence greenhouse test; conditions: Dosage 2000 g/ha
Ambrosia artemisiifolia [8] = test: LTP post-emergence greenhouse test; conditions: Dosage 2000 g/ha
Setaria viridis [9] = test: LTP post-emergence greenhouse test; conditions: Dosage 2000 g/ha
[10] = tested on: monocot and eudicot weeds species; test: In-planta LTP weed panel, overall assessment; conditions: for growth inhibition (in words): dicot species, either pre- or post-emergence applications
Poa annua [11] = test: LTP post-emergence greenhouse test; conditions: Dosage 2000 g/ha
Abutilon theophrasti [12] = test: LTP pre-emergence greenhouse test; conditions: Dosage 2000 g/ha
Method: (§2) A basic panel of 8 weed species (Table 3) were sowed in 4×4×7 cm plastic pots containing inert sand (Sweet sand), intensively washed using osmosis water. Each specie was sowed in a separate pot. In each pot 10-15 seeds were sowed according to the specie viability. Sowing was performed one day before application. The plants were grown for 21 days in a controlled greenhouse (26±2° C. day 20±2° C. night). Hood irrigation (tap water+Shefer 5:3:8 8 mM) was given at a 50% water content by weight. Compounds were soluble in water (DDW), and commercial herbicide control was soluble in formulation B (Table 4). Application was conducted with an industrial sprayer (TeeJet 6502E nozzle) at a rate of 2 kg/ha and spray volume of […]. Pre-emergence advanced dose response experiment application was conducted at six rates between 1-0.0312 kg/ha and spray volume of […]. Percentage of emergence was evaluated at 15 DAA. Visual phenotyping was recorded using a scale of 0-6 (0: no visible effect, 6: maximum effect) at 18 DAA. All experiments included an untreated control, a solvent control and a positive control (commercial herbicide A.I.). […] Statistical analysis for plant emergence determined by % emergence ≥50 and T test (pval≤0.05), as well as Wilcox test (pval≤0.05).

Amaranthus palmeri [13] = test: LTP pre-emergence greenhouse test; conditions: Dosage 2000 g/ha
Method: as §2

Alopecurus myosuroides [14] = test: LTP pre-emergence greenhouse test; conditions: Dosage 2000 g/ha
Method: as §2

Setaria viridis [15] = test: LTP pre-emergence greenhouse test; conditions: Dosage 2000 g/ha
Method: as §2

Ambrosia artemisiifolia [16] = test: LTP pre-emergence greenhouse test; conditions: Dosage 2000 g/ha
Method: as §2

Matricaria chamomilla [17] = test: LTP pre-emergence greenhouse test; conditions: Dosage 2000 g/ha
Method: as §2

Lolium perenne [18] = test: LTP pre-emergence greenhouse test; conditions: Dosage 2000 g/ha
Method: as §2

Poa annua [19] = test: LTP pre-emergence greenhouse test; conditions: Dosage 2000 g/ha
Method: as §2

[20] = tested on: monocot and dicot model plants; test: In-planta HTPS, overall assessment; conditions: on monocots
Method: The plates were placed in a controlled greenhouse in a random order inside a bath which allows flooding irrigation with tap water supplemented with a fertilizer. Applied compounds were dissolved into a final solution of 50% acetone, 49.9% DDW, 0.1% tween-20. A 96 well plate was used as a stock plate for preparing application solutions for 8 repeats. Each row contained different concentrations per chemical. Maximal concentration for application was 1.5 Kg/Ha and dilution factor is 2.5. Chemical application was performed one day after thinning out in a chemical hood. […] applied on first two true leaves in each well using 12 channel pipettes. Data collection: RGB (red, green, blue) data for green area per well was documented using camera. Data is collected at a few time points during the experiment: one day after thinning and before chemical application, two-, six- or nine-days post application. During the last two documentations, visual phenotyping was performed. Data analysis: Given RGB results and visual phenotype scores, a student t-test conducted to compare between treatment and control performance for continuous data (RGB) and Fisher exact test to analyze the non-continuous data (phenotypic scores). […] The compounds were applied as a gradient of concentrations as listed above, from which the ED50 was calculated.

CC(O)C(N)CCCCC(=O)NS(=O)(=O)CC1CCCC1 (centres unmarked) [Compound 101]
Emax (Arabidopsis thaliana [1]): 100% | ED50 (g/ha) (Arabidopsis thaliana [1]): 29 g/ha

COC(=O)CN(C)C(=O)CCCCC(N)C(C)O (centres unmarked) [Compound 102]
Emax (Arabidopsis thaliana [1]): 90% | ED50 (g/ha) (Arabidopsis thaliana [1]): 2 g/ha

C[C@H]1OC(=O)N[C@H]1CCCCC(=O)O [Compound 105, 5-((4S,5R)-5-methyl-2-oxooxazolidin-4-yl)pentanoic acid]
Emax (Arabidopsis thaliana [1]): 94% | ED50 (g/ha) (Arabidopsis thaliana [1]): 430 g/ha

C[C@@H]1OC(=O)N[C@@H]1CCCCC(=O)O [Compound 106, 5-((4R,5S)-5-methyl-2-oxooxazolidin-4-yl)pentanoic acid]
Emax (Arabidopsis thaliana [1]): 82% | ED50 (g/ha) (Arabidopsis thaliana [1]): >1000 g/ha

CC(N)CCCCC(=O)O (centres unmarked) [Compound 107]
Emax (Arabidopsis thaliana [1]): 100% | ED50 (g/ha) (Arabidopsis thaliana [1]): 200 g/ha

CCC(C)C(N)c1cccc(C(=O)O)c1 (centres unmarked) [Compound 108]
ED50 (g/ha) (Arabidopsis thaliana [2]): 175 g/ha | Max Inhibition (%) (Arabidopsis thaliana [2]): 100%

CC(C)(C)C(N)c1cccc(C(=O)O)c1 (centres unmarked) [Compound 109]
Herbicidal activity (In-planta), LTP-Post emergence, Alopecurus myosuroides (Alopecurus myosuroides [3]): 0 | Herbicidal activity (In-planta), LTP-Post emergence, Amaranthus palmeri (Amaranthus palmeri [4]): 40 | Herbicidal activity (In-planta), LTP-Post emergence, Abutilon theophrasti (Abutilon theophrasti [5]): 0 | ED50 (g/ha) (Arabidopsis thaliana [2]): 24 g/ha | Herbicidal activity (In-planta), LTP-Post emergence, Lolium perenne (Lolium perenne [6]): 0 | Herbicidal activity (In-planta), LTP-Post emergence, Matricaria chamomilla (Matricaria chamomilla [7]): 0 | Herbicidal activity (In-planta), LTP-Post emergence, Ambrosia artemisiifolia (Ambrosia artemisiifolia [8]): 40 | Herbicidal activity (In-planta), LTP-Post emergence, Setaria viridis (Setaria viridis [9]): 0 | growth inhibition (in words) [10]: moderate growth inhibition | Herbicidal activity (In-planta), LTP-Post emergence, Poa annua (Poa annua [11]): 0 | Herbicidal activity (In-planta), LTP-Pre emergence, Abutilon theophrasti (Abutilon theophrasti [12]): 0 | Herbicidal activity (In-planta), LTP-Pre emergence, Amaranthus palmeri (Amaranthus palmeri [13]): 40 | Herbicidal activity (In-planta), LTP-Pre emergence, Alopecurus myosuroides (Alopecurus myosuroides [14]): 0 | Herbicidal activity (In-planta), LTP-Pre emergence, Setaria viridis (Setaria viridis [15]): 0 | Herbicidal activity (In-planta), LTP-Pre emergence, Ambrosia artemisiifolia (Ambrosia artemisiifolia [16]): 0 | Herbicidal activity (In-planta), LTP-Pre emergence, Matricaria chamomilla (Matricaria chamomilla [17]): 0 | Herbicidal activity (In-planta), LTP-Pre emergence, Lolium perenne (Lolium perenne [18]): 0 | Herbicidal activity (In-planta), LTP-Pre emergence, Poa annua (Poa annua [19]): 0 | Emax (Arabidopsis thaliana [1]): 100% | ED50 (g/ha) (Arabidopsis thaliana [1]): 200 g/ha

CCC(O)C(N)CCCCC(=O)O (centres unmarked) [Compound 113]
Emax (Arabidopsis thaliana [1]): 100% | ED50 (g/ha) (Arabidopsis thaliana [1]): 26 g/ha

C[C@H](O)[C@@H](N)CCCCC(=O)O [Compound 114]
Emax (Arabidopsis thaliana [1]): 100% | ED50 (g/ha) (Arabidopsis thaliana [1]): 40 g/ha

C[C@@H](O)[C@H](N)CCCCC(=O)O [Compound 115]
Emax (Arabidopsis thaliana [1]): 100% | ED50 (g/ha) (Arabidopsis thaliana [1]): 13 g/ha

O=C(O)CCCCC1CCNC1 (centres unmarked) [Compound 123]
Emax (Arabidopsis thaliana [1]): 100% | ED50 (g/ha) (Arabidopsis thaliana [1]): 140 g/ha

NC1CCC(CCCC(=O)O)C1 (centres unmarked) [Compound 143]
Emax (Arabidopsis thaliana [1]): 100% | ED50 (g/ha) (Arabidopsis thaliana [1]): 61 g/ha

COC(=O)CCCSC1CCCC1N (centres unmarked) [Compound 146]
growth inhibition (in words) [10]: moderate growth inhibition | Herbicidal activity (In-planta), LTP-Pre emergence, Abutilon theophrasti (Abutilon theophrasti [12]): 0 | Herbicidal activity (In-planta), LTP-Pre emergence, Amaranthus palmeri (Amaranthus palmeri [13]): 60-80 | Herbicidal activity (In-planta), LTP-Pre emergence, Alopecurus myosuroides (Alopecurus myosuroides [14]): 0 | Herbicidal activity (In-planta), LTP-Pre emergence, Setaria viridis (Setaria viridis [15]): 60 | Herbicidal activity (In-planta), LTP-Pre emergence, Ambrosia artemisiifolia (Ambrosia artemisiifolia [16]): 0 | Herbicidal activity (In-planta), LTP-Pre emergence, Matricaria chamomilla (Matricaria chamomilla [17]): 0 | Herbicidal activity (In-planta), LTP-Pre emergence, Lolium perenne (Lolium perenne [18]): 40 | Herbicidal activity (In-planta), LTP-Pre emergence, Poa annua (Poa annua [19]): 0 | Emax (Arabidopsis thaliana [1]): 100% | ED50 (g/ha) (Arabidopsis thaliana [1]): 80 g/ha

COC(=O)CCSC1CCCC1N (centres unmarked) [Compound 147]
Max Inhibition (%) (Arabidopsis thaliana [2]): 100% | Emax (Arabidopsis thaliana [1]): 50% | ED50 (g/ha) (Arabidopsis thaliana [1]): 807 g/ha

O=C(O)CCCCC1CCCN1 (centres unmarked) [Compound 148]
activity (in words) ([10]; dicots and monocots, applied pre-emergence): good to moderate activity | Herbicidal activity (In-planta), LTP-Pre emergence, Abutilon theophrasti (Abutilon theophrasti [12]): 40-60 | Herbicidal activity (In-planta), LTP-Pre emergence, Amaranthus palmeri (Amaranthus palmeri [13]): 60-80 | Herbicidal activity (In-planta), LTP-Pre emergence, Alopecurus myosuroides (Alopecurus myosuroides [14]): 0 | Herbicidal activity (In-planta), LTP-Pre emergence, Setaria viridis (Setaria viridis [15]): 40 | Herbicidal activity (In-planta), LTP-Pre emergence, Ambrosia artemisiifolia (Ambrosia artemisiifolia [16]): 60 | Herbicidal activity (In-planta), LTP-Pre emergence, Matricaria chamomilla (Matricaria chamomilla [17]): 60-80 | Herbicidal activity (In-planta), LTP-Pre emergence, Lolium perenne (Lolium perenne [18]): 0 | Herbicidal activity (In-planta), LTP-Pre emergence, Poa annua (Poa annua [19]): 60-80 | Emax (Arabidopsis thaliana [1]): 100% | ED50 (g/ha) (Arabidopsis thaliana [1]): 30 g/ha

CCC(N)CCCCC(=O)O (centres unmarked) [Compound 149]
activity (in words) [20]: very good activity | Emax (Arabidopsis thaliana [1]): 100% | ED50 (g/ha) (Arabidopsis thaliana [1]): 90 g/ha

NC1CCCCC1CCCC(=O)O (centres unmarked) [Compound 152]
Emax (Arabidopsis thaliana [1]): 100% | ED50 (g/ha) (Arabidopsis thaliana [1]): 4 g/ha

O=C(O)CCCC1CCCNC1 (centres unmarked) [Compound 154]
Emax (Arabidopsis thaliana [1]): 100% | ED50 (g/ha) (Arabidopsis thaliana [1]): 8 g/ha
